Assay results as given in patent publication US9597527B2, “Enhancement of penetration and action” (Merck Patent GmbH, priority 2010, dated 2017).

Assay: In vitro skin permeation, Franz-type diffusion cells, with light device irradiation
Type: in vitro ADME, pig
Details: Fucicort cream 4 mg/cm^2 on SC, p<0.005
Procedure: Full Thickness skin is removed from the back of pig ears. The subcutaneous tissue is removed and the skin is mounted in open two-chamber Franz-type diffusion cells (diffusion area: 3.14 cm^−2; recipient volume: 10 ml). Temperature is kept at 32° C. at the skin surface. Recipient phase is a 0.05 M isotonic acetate buffer, pH 4.5, and 2-propanol (80:20%, vol/vol). The experiments are carried out under sink condition.
The test formulation (4 mg/cm^2) is applied to the stratum corneum (SC) side of the skin. The treatment is reapplied at 3, 21, 27, 45, and 51 h, which simulates the actual dosage regimen in patients. At appropriate times (3, 21, 27, 45, 51, and 70 h) a specific amount of recipient phase is withdrawn and replaced by thermostated fluid. Samples are kept at 4° C. for a maximum of 2 days until high-performance liquid chromatography (HPLC) analysis. All permeation experiments are carried out in 6 replicates.
The same experiment as described above is carried out.
The same experiment as described above is carried out. Again, the skin is irradiated for 2 h after each application of the cream, but with the devices Dev4-6 of Example 4 in three separate runs, one run for each device. The devices are positioned directly above the SC. If the cream is applied or reapplied the light emitting device is repositioned on the SC 5 minutes afterwards. After having the skin irradiated for 1 h, the irradiation source is removed from the skin. Again samples of the recipient are taken and analyzed by HPLC in time intervals given above.

For `C[C@H]1C[C@H]2[C@@H]3CCC4=CC(=O)C=C[C@]4(C)[C@@]3(F)[C@@H](O)C[C@]2(C)[C@@]1(O)C(=O)CO` [betamethasone], the “permeation enhanced as compared to the control experiment” value (skin irradiated for 30 min with IR device Dev5, positioned 5 minutes after application) was 20%, the “permeation enhanced as compared to the control experiment” value (skin irradiated for 2 h after each application with IR devices Dev4-6, one run each, all three devices) was “more than 27%” and the “permeation enhanced as compared to the control experiment” value (skin irradiated for 2 h after each application with device Dev1 (red OLED), recipient samples by HPLC) was 14%.
